Where a name gives a salt, the structure may show the parent alone. Read-outs that look alike come from different tables or passages of the source.
Columns and labels:
Assay type in all cases: biochemical
[1] = target: T1, recombinant PRL-1 (Homo sapiens, UniProt Q93096); test: In vitro phosphatase assay (DiFMUP hydrolysis), PRL-1; further: test concentration or dose not given here
T1 construct: 6xHis (N, cleaved yes); made in house; host or cells: E. coli One Shot BL21 Star
T1 sequence (Q93096 1-173): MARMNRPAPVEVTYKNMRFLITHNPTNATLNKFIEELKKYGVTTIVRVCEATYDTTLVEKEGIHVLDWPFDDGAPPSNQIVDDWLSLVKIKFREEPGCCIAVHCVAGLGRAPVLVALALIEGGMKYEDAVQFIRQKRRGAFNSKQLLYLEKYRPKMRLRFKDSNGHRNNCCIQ

[2] = target: T2, recombinant PRL-3 (Homo sapiens, UniProt O75365); test: In vitro phosphatase assay (DiFMUP hydrolysis), PRL-3; further: test concentration or dose not given here
T2 construct: 6xHis (N, cleaved yes); made in house; host or cells: E. coli One Shot BL21 Star

[3] = target: T3, recombinant PRL-2 (Homo sapiens, UniProt Q12974); test: In vitro phosphatase assay (DiFMUP hydrolysis), PRL-2;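 further: PRL-2 activity read as DiFMUP hydrolysis after 20 min at room temperature with drug, enzyme first pre-reduced at 4 °C for 20 min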
T3 construct: 6xHis (N, cleaved yes); made in house; host or cells: E. coli One Shot BL21 Star
T3 sequence (Q12974 1-167): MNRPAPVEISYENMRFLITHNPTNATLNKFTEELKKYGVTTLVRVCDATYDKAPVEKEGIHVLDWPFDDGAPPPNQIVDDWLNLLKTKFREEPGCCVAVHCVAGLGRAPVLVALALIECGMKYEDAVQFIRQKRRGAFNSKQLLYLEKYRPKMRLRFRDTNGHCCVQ

[4] = FDA-approved drug screen, compared to DMSO
[5] = FDA-approved drug screen, activity compared to DMSO

T2 sequence (O75365 whole entry): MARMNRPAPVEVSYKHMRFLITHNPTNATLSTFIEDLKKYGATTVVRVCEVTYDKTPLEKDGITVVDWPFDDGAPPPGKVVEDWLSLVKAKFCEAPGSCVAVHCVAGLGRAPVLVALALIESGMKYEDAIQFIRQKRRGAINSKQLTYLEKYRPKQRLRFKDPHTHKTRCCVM

Compound	% Phosphatase Activity (compared to DMSO) PRL-1 [1, 4]	% Phosphatase Activity (compared to DMSO) PRL-3 [2, 4]	% Phosphatase Activity (compared to DMSO) PRL-2 [3, 4]	further results
CC(=O)OCC(=O)[C@@]12OC(C)(C)O[C@@H]1C[C@H]1[C@@H]3C[C@H](F)C4=CC(=O)C=C[C@]4(C)[C@@]3(F)[C@@H](O)C[C@@]12C [Fluocinonide]	91%	89%	92%	–
O=C(O)c1cc(O)c(O)c(O)c1 [Gallic acid]	100%	80%	76%	–
CS(=O)(=O)Nc1ccc([N+](=O)[O-])cc1Oc1ccccc1 [Nimesulide]	–	–	–	% Phosphatase Activity (compared to DMSO) PRL-1 [1]: 78%; % Phosphatase Activity (compared to DMSO) PRL-3 [2]: 85%; % Phosphatase Activity (compared to DMSO) PRL-2 [3]: 83%
CNC(=O)c1ccc2cc([C@@]3(O)CCn4cncc43)ccc2c1 [TAK-700 (Orteronel)]	–	–	–	% Phosphatase Activity (compared to DMSO) PRL-1 [1, 5]: 128%; % Phosphatase Activity (compared to DMSO) PRL-3 [2, 5]: 87%; % Phosphatase Activity (compared to DMSO) PRL-2 [3, 5]: 107%
Cc1cc2c(cc1S(N)(=O)=O)S(=O)(=O)CCC2 [Meticrane]	104%	83%	94%	–
O=C1CCc2ccc(OCCCCN3CCN(c4cccc(Cl)c4Cl)CC3)cc2N1 [Aripiprazole]	100%	103%	111%	–
Cc1cc(O)cc(C)c1Cl [Chloroxylenol]	93%	92%	112%	–
Capreomycin Sulfate	95%	113%	95%	–
CN(CCOc1ccc(CC2SC(=O)NC2=O)cc1)c1ccccn1 (stereo not drawn) [Rosiglitazone]	90%	79%	111%	–
CCC(C)(C)C(=O)O[C@H]1C[C@@H](C)C=C2C=C[C@H](C)[C@H](CC[C@@H]3C[C@@H](O)CC(=O)O3)[C@H]21 [Simvastatin]	–	–	–	% Phosphatase Activity (compared to DMSO) PRL-1 [1, 5]: 84%; % Phosphatase Activity (compared to DMSO) PRL-3 [2, 5]: 91%; % Phosphatase Activity (compared to DMSO) PRL-2 [3, 5]: 94%
COc1cc(OC)c(/C=C/S(=O)(=O)Cc2ccc(OC)c(NCC(=O)O)c2)c(OC)c1 [Rigosertib (ON-01910)]	95%	78%	86%	–
CNC(=O)c1cc(Oc2ccc(NC(=O)Nc3ccc(Cl)c(C(F)(F)F)c3)cc2)ccn1 [Sorafenib]	–	–	–	% Phosphatase Activity (compared to DMSO) PRL-1 [1, 5]: 91%; % Phosphatase Activity (compared to DMSO) PRL-3 [2, 5]: 95%; % Phosphatase Activity (compared to DMSO) PRL-2 [3, 5]: 80%
Nc1ccc(S(=O)(=O)c2ccc(N)cc2)cc1 [Dapson]	89%	75%	100%	–
CC(=O)NO [Acetohydroxamic acid]	91%	75%	111%	–
CNC(=C[N+](=O)[O-])NCCSCc1ccc(CN(C)C)o1 [Ranitidine]	93%	103%	102%	–
N=C(N)NC(=O)c1nc(Cl)c(N)nc1N [Amiloride HCl]	234%	230%	300%	–
Cc1[nH]c2ccccc2c1CCNCc1ccc(/C=C/C(=O)NO)cc1 [Panobinostat (LBH589)]	95%	83%	102%	–
C[C@]1(c2nc3c(C(N)=O)cccc3[nH]2)CCCN1 [Veliparib (ABT-888)]	–	–	–	% Phosphatase Activity (compared to DMSO) PRL-1 [1, 5]: 108%; % Phosphatase Activity (compared to DMSO) PRL-3 [2, 5]: 83%; % Phosphatase Activity (compared to DMSO) PRL-2 [3, 5]: 99%
CO/N=C(\C(=O)N[C@@H]1C(=O)N2C(C(=O)O)=C(COC(N)=O)CS[C@H]12)c1ccco1 [Cefuroxime sodium]	96%	82%	96%	–
COc1ccc(C(=O)c2ccccc2O)c(O)c1 [2,2′-Dihydroxy-4-methoxybenzophenone]	90%	79%	107%	–
COc1ccc2c(c1)c(CC(=O)OCC(=O)O)c(C)n2C(=O)c1ccc(Cl)cc1 [Acemetacin]	93%	94%	121%	–

Now from value to compound, other results behind:

% Phosphatase Activity (compared to DMSO) PRL-1 [1, 4]	% Phosphatase Activity (compared to DMSO) PRL-3 [2, 4]	% Phosphatase Activity (compared to DMSO) PRL-2 [3, 4]	Compound	further results
108%	92%	112%	CCN(CC)CCOC(=O)c1ccc(N)cc1 [Procaine HCl]	–
131%	102%	125%	COc1c(C)c2c(c(O)c1C/C=C(\C)CCC(=O)OCCN1CCOCC1)C(=O)OC2 [Mycophenolate Mofetil]	–
68%	64%	54%	CO[C@@]12[C@H](COC(N)=O)C3=C(C(=O)C(C)=C(N)C3=O)N1C[C@@H]1N[C@@H]12 [Mitomycin C]	–
86%	93%	74%	CN1C2CCCC1CC(NC(=O)c1nn(C)c3ccccc13)C2 (stereo not drawn) [Granisetron HCl]	–
99%	101%	101%	COc1ccc(CC2c3cc(OC)c(OC)cc3CC[N+]2(C)CCC(=O)OCCCCCOC(=O)CC[N+]2(C)CCc3cc(OC)c(OC)cc3C2Cc2ccc(OC)c(OC)c2)cc1OC (stereo not drawn) [Atracurium Besylate]	–
108%	79%	103%	Nc1nccs1 [Aminothiazole]	–
95%	74%	96%	O=C(c1ccc(OCCN2CCCCC2)cc1)c1c(-c2ccc(O)cc2)sc2cc(O)ccc12 [Raloxifene HCl]	–
87%	97%	69%	O=C(/C=C\n1cnc(-c2cc(C(F)(F)F)cc(C(F)(F)F)c2)n1)NNc1cnccn1 [KPT-330]	–
110%	75%	93%	Cc1cc(=O)[nH]c(=S)[nH]1 [Methylthiouracil]	–
96%	83%	80%	O=C(N[C@H](CO)[C@H](O)c1ccc([N+](=O)[O-])cc1)C(Cl)Cl [Chloramphenicol]	–
106%	79%	113%	N#C[C@@H]1C[C@@H]2C[C@@H]2N1C(=O)[C@@H](N)C12CC3CC(CC(O)(C3)C1)C2 [Saxagliptin]	–
